In experiment [1] the target is T1, Peregrin (Homo sapiens) (UniProt P55201).
T1 sequence (whole entry): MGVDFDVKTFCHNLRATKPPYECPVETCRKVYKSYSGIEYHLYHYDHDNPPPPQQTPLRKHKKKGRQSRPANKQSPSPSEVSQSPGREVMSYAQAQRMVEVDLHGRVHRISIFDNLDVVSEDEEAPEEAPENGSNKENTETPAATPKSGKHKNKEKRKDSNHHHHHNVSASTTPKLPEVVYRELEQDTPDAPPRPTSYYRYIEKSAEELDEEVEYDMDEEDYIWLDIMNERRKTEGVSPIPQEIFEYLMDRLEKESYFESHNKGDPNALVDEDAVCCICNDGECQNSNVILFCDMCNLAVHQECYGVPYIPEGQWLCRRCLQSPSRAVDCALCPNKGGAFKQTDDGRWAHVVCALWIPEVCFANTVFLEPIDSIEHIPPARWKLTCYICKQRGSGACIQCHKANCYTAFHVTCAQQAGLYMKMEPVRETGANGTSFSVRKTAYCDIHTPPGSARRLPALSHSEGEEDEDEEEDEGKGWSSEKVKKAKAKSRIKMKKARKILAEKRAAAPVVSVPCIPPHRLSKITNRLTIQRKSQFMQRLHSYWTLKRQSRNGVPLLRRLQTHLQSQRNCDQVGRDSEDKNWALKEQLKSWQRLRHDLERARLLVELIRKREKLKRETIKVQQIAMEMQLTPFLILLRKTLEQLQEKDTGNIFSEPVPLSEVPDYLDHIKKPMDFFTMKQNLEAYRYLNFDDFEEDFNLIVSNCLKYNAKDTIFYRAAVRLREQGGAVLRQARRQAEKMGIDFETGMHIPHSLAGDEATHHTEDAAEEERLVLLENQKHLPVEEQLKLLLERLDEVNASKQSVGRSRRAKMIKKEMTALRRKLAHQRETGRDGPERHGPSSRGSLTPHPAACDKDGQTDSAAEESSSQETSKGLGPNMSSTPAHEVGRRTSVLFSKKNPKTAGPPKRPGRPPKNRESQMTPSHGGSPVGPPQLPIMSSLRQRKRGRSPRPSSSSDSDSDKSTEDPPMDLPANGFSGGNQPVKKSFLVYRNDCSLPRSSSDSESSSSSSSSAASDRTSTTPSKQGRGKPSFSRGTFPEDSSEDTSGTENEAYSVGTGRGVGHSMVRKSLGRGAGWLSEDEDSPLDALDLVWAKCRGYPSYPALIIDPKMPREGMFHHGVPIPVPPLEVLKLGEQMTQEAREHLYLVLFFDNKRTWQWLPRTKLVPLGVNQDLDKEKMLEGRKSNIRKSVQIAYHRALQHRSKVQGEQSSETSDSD
To be noted: Compound concentration 20.0 uM.

Experiment [2] addresses Fibroblast growth factor receptor 2 (Homo sapiens) (UniProt P21802). To be noted: Compound concentration 20.0 uM.
Description: Thermal Shift Assay. Domain: start/stop: T457-E768

Sequence of Fibroblast growth factor receptor 2 (Homo sapiens) (P21802 22-821 limits assumed): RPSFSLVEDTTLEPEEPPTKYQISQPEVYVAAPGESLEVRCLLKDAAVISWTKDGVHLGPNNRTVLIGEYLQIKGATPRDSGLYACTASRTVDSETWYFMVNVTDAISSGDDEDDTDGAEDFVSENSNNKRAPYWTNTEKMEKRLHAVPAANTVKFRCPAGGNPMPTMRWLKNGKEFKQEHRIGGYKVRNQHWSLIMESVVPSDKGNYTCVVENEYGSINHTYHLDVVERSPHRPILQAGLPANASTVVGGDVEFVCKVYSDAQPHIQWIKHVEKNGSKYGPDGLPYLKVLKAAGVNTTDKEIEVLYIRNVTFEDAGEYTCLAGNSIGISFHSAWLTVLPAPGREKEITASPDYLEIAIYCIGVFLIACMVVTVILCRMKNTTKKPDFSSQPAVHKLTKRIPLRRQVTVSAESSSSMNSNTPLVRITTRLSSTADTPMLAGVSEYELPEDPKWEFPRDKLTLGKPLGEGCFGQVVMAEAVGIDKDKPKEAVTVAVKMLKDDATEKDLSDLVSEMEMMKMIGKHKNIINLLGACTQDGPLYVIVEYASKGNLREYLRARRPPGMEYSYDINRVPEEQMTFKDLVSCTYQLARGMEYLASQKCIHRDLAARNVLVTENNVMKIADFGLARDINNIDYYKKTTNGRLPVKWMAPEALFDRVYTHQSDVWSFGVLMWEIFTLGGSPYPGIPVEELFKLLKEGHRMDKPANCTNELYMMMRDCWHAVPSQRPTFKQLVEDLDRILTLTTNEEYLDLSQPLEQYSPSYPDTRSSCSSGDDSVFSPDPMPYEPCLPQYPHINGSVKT

As for `O=C1c2ccccc2C(=O)c2oc(-c3cccnc3)nc21`, the ΔTm (commonly the change in melting temperature against a reference sample) in experiment [1] was 2.45 °C; in experiment [2], -0.95 °C.
The like results for `CC(C)[C@@H]1NC(=O)[C@H](Cc2ccc(O)cc2)NC(=O)[C@@H](CC(=O)O)NC(=O)S[C@@H](C(=O)O)NC(=O)[C@H]([C@H](C)O)NC(=O)[C@H](Cc2ccc(O)cc2)NC(=O)[C@H](Cc2c[nH]c3ccccc23)NC(=O)[C@H](CCCNC(=N)N)NC(=O)[C@H](Cc2c[nH]c3ccccc23)NC(=O)[C@H](C)NC(=O)[C@H](CO)NC(=O)[C@H](CCCNC(=N)N)NC(=O)[C@H]([C@H](C)O)NC(=O)[C@H](CC(N)=O)NC(=O)[C@H](Cc2ccc(O)cc2)NC1=O` were, in that order, 1.38 °C and 0.32 °C.
In the same order, the values of `Cn1nc(C(C)(C)C)cc1C(=O)NC(Cc1cccc(Cl)c1)C(=O)NCC#N` (centres undefined) are 2.3 °C and 0.05 °C.
The like results for `CC(=O)N[C@@H](CC(=O)O)C(=O)N[C@@H](CCC(=O)O)C(=O)N[C@H](C(=O)N[C@H](C=O)CC(=O)O)C(C)C` were, in that order, -1.4 °C and -0.22 °C.
Turning to `N#C[C@@H]1CCCN1C(=O)[C@@H]1CCCN1C(=O)CCCc1ccccc1`, the ΔTm was -1.55 °C in experiment [1] and 0.84 °C in experiment [2].
In the same order, the values of `C[C@H](NC(=O)CCc1nc2ccccc2c(=O)[nH]1)c1ccccc1` are -0.15 °C and 0.69 °C.
In the same order, the values of `CS(=O)(=O)c1ccc(Oc2cc(F)cc(C#N)c2)c2c1[C@H](O)[C@H](F)[C@@H]2F` are 2.16 °C and 0.61 °C.
Regarding `CNC(=O)c1cnc(N2CCC[C@H](N)C2)nc1Nc1cc(C(C)C)nc(C(C)C)c1`, the ΔTm in experiment [1] is -0.82 °C; in experiment [2], -3.52 °C.
In the same order, the values of `CN(CCC(Oc1ccc(-c2ccccc2)cc1)c1ccc(F)cc1)CC(=O)O` (centres undefined) are 1.93 °C and 0.44 °C.
In the same order, the values of `CN(Cc1cc(Br)cc(Br)c1N)C1CCCCC1` are 1.45 °C and -0.25 °C.
The like results for `Cc1nc(F)ccc1-c1cc(Cn2ccn(C)c2=N)cc(C(=O)NCc2ccc(Cl)c(Cl)c2)c1` were, in that order, -1.3 °C and 0.16 °C.
With `O=C(O)C1=CCCN(CCOC(c2ccc(C(F)(F)F)cc2)c2ccc(C(F)(F)F)cc2)C1`, the values for the ΔTm in experiment [1] and in experiment [2] were 0.47 °C and -0.15 °C, respectively.
In the same order, the values of `O=C1/C(=N/Nc2ccc(S(=O)(=O)O)cc2)C(c2ccc([N+](=O)[O-])cc2)=NN1c1ccccc1` are 0.37 °C and 0.4 °C.
The like results for `CC(C)(C)OC(=O)Nc1ccc(-c2cc(C(=O)NCCCCCCC(=O)NO)no2)cc1` were, in that order, 0 °C and -3.33 °C.
As for `CS(=O)(=O)N1CCN(C(=O)c2cnc3ccc(Cl)cc3c2-c2ccc(C3(C#N)CC3)cc2)CC1`, the ΔTm in experiment [1] worked out at 1.84 °C; in experiment [2], 0.34 °C.
In the same order, the values of `CCNC(=O)c1cc2c(-c3cc(C(C)(C)O)ccc3Oc3c(C)cc(F)cc3C)cn(C)c(=O)c2[nH]1` are 1.94 °C and 0.28 °C.
The like results for `Cc1ccc(F)c2cc(C(=O)N[C@@H]3CCC[C@H](N4CC[C@H](N(C)S(C)(=O)=O)C4)C3)[nH]c12` were, in that order, -0.28 °C and -0.4 °C.
In the same order, the values of `CCOc1ccc2nc(-c3cccc(OCC(=O)NC(C)C)c3)nc(Nc3ccc(-c4cn[nH]c4)cc3)c2c1` are 2.82 °C and -0.59 °C.
In the case of `O=C(C=Cc1ccc(O)cc1)c1ccc(O)cc1O`, the ΔTm came to 0.82 °C in experiment [1] and 1.26 °C in experiment [2].
The like results for `CN(CCCCCCNc1ccnc2cc(Cl)ccc12)CCCCCCNc1ccnc2cc(Cl)ccc12` were, in that order, 0.99 °C and 0.43 °C.
In the same order, the values of `COc1cc(O)c2c(c1)/C=C\C[C@H](O)[C@H](O)C(=O)/C=C\C[C@H](C)OC2=O` are -1.29 °C and 2.24 °C.
As for `CCCCCCCCCCCCC/C=C/[C@@H](O)[C@H](CO)NC(=O)CBr`, the ΔTm in experiment [1] is -2.74 °C; in experiment [2] it was -18.9 °C.
The like results for `COc1ccc(N2CCN(C(=O)c3cc4c(s3)-c3ccccc3S(=O)(=O)C4)CC2)cc1` were, in that order, 0 °C and 0.24 °C.
Take `CCN(c1cc(-c2ccc(CN3CCOCC3)cc2)cc(C(=O)NCc2c(C)cc(C)[nH]c2=O)c1C)C1CCOCC1`: the ΔTm in experiment [1] is -1.14 °C; in experiment [2] it was 0.66 °C.
The like results for `CCC[C@@H]1CNCc2c1[nH]c(=O)c(C#N)c2N1CCC2(CC1)CC2` were, in that order, -1.25 °C and 0.64 °C.
In the same order, the values of `C=CCO/N=C1\c2ccccc2-c2nc(C#N)c(C#N)nc21` are 2.37 °C and 0.66 °C.
The like results for `NCCOCCOCCNC(=O)Cc1ccc(Nc2nc(NCc3ccc(F)cc3)nc(NCC3CCCCC3)n2)cc1` were, in that order, 2.13 °C and 0.03 °C.
As to `N[C@@H](CC(=O)Nc1ccc(Oc2cc(F)c(F)cc2Br)cc1)C(=O)O`, the ΔTm in experiment [1] was 0.59 °C; in experiment [2] it was -0.01 °C.
The like results for `N#C[C@@H]1C[C@@H]2C[C@@H]2N1C(=O)[C@@H](N)C12CC3CC(CC(O)(C3)C1)C2` were, in that order, -0.63 °C and 0.29 °C.
In the same order, the values of `CN(C)Cc1ccc(S(=O)(=O)n2ccc(/C=C/C(=O)NO)c2)cc1` are -0.83 °C and 0.36 °C.
The like results for `COc1cc2c(cc1-c1c(C)noc1C)[nH]c1nc(C)nc(Nc3cc(C4CC4)nn3C)c12` were, in that order, 1.07 °C and -0.94 °C.
Turning to `COc1cc2c(NCC3CCN(C)CC3)cc(-c3ccc(C)o3)nc2cc1OCCCN1CCCC1`, the ΔTm in experiment [1] was -0.88 °C; in experiment [2] it was 0.16 °C.
In the case of `CCCOc1ccc(CCc2nc3cc(-c4c(C)noc4C)ccc3n2CCN2CCOCC2)cc1`, the ΔTm in experiment [1] was -1.09 °C; in experiment [2], -0.48 °C.
In the same order, the values of `CC(=O)N[C@@H](CC(=O)O)C(=O)N[C@@H](CC(N)=O)C(=O)N[C@@H](CC(C)C)C(=O)N[C@H](C=O)CC(=O)O` are 1.79 °C and 0.44 °C.
The like results for `CCCOC(=O)N1CCN(C(=O)c2ccc3c(Cl)cc(-c4ccc(C5(N)CC5)cc4)nc3c2)C[C@H]1C` were, in that order, -1.27 °C and -0.58 °C.
In the same order, the values of `Cc1ncsc1-c1ccc([C@H](C)NC(=O)[C@@H]2C[C@@H](O)CN2C(=O)[C@@H](NC(=O)COCCCOCCNC(=O)C[C@@H]2N=C(c3ccc(Cl)cc3)c3c(sc(C)c3C)-n3c(C)nnc32)C(C)(C)C)cc1` are -1.73 °C and -0.49 °C.
As to `C[C@@H]1CN(c2nccc(Nc3ccc4c(c3)n(CCC(C)(C)O)c(=O)n4C)n2)C[C@H](C)C1(F)F`, the thermal shift (ΔTm) was -0.49 °C in experiment [1] and -0.7 °C in experiment [2].
On to `CCS(=O)(=O)N1CC(CC#N)(n2cc(-c3ncnc4[nH]ccc34)cn2)C1`, for which the shift in melting temperature (ΔTm) in experiment [1] is -1.09 °C; in experiment [2], 1.48 °C.
The like results for `Cc1cc(C)c(CNC(=O)c2cc(-c3ccc(N4CCN(C)CC4)nc3)cc3c2c(C)cn3C(C)C)c(=O)[nH]1` were, in that order, -1.27 °C and 0.85 °C.
As for `CCc1ccccc1NC(=O)CSC(=O)NNC(=O)[C@H](Cc1c[nH]c2ccccc12)NC(=O)OC(C)(C)C`, the ΔTm in experiment [1] is -6.08 °C; in experiment [2], -9.39 °C.
`Cc1ncsc1-c1ccc(CNC(=O)[C@@H]2C[C@@H](O)CN2C(=O)[C@@H](NC(=O)COCCOCCOc2ccc(-c3ccc4ncnc(Nc5ccc(OCc6cccc(F)c6)c(Cl)c5)c4c3)cc2)C(C)(C)C)cc1`: the results for the ΔTm in experiment [1] and in experiment [2] were 0 °C and -3.99 °C, respectively.
For the compound `C[C@H](c1nc2c(cnn2C2CCOCC2)c(=O)[nH]1)N1CC(Oc2ccccc2)C1`, the figures for the shift in melting temperature (ΔTm) in experiment [1] and in experiment [2] were 2.25 °C and -0.05 °C, respectively.
For the compound `NC(=O)c1cnc(N[C@@H]2CCCC[C@@H]2N)nc1Nc1cccc(-n2nccn2)c1`, the ΔTm in experiment [1] was -1.09 °C; in experiment [2], 0.98 °C.
In the same order, the values of `CC(=O)O[C@]1(C(C)=O)CC[C@H]2[C@@H]3C=C(Cl)C4=CC(=O)[C@@H]5C[C@@H]5[C@]4(C)[C@H]3CC[C@@]21C` are -1.28 °C and 0.57 °C.
As for `NC(=O)C1CN(CCCCC(c2ccc(F)cc2)c2ccc(F)cc2)CCN1CC(=O)Nc1c(Cl)cc(N)cc1Cl` (centres undefined), the ΔTm is -3.73 °C in experiment [1] and -9.38 °C in experiment [2].
In the same order, the values of `Cn1c(OC[C@H]2CC[C@H](C(F)(F)F)CC2)nn2c(C3CCOCC3)ncc2c1=O` are 2.25 °C and -0.94 °C.
The like results for `COc1ccc(OC)c(-c2nnc3n2N=C(c2ccc(OC)c(OC)c2)CS3)c1` were, in that order, 0.8 °C and 0.4 °C.

These data come from ChEMBL document CHEMBL5724796, “Tm Shift (DSF) assay results for EUbOPEN Chemogenomics Library” (2024).
